Experimental data published in patent publication US6780992B2, “Heterocyclic compounds, process for their preparation and pharmaceutical compositions containing them and their use in the treatment of diabetes and related diseases” (Dr. Reddy's Laboratories Ltd., priority 1996, dated 2004).
Counter-ions that a name gives are not always drawn. Like-named read-outs stand apart in the source and are kept apart here.

System: C57BL/KsJ-db/db mice
Assay: blood sugar and triglycerides lowering in db/db mice, oral gavage daily for 6 days
Format: in vivo
Conditions: for inhibition in vivo at 10 mg/kg/day / inhibition in vivo at 100 mg/kg/day / inhibition in vivo at 30 mg/kg/day: Mus musculus, 144 h, 6 days treated; for inhibition in vivo at 10 mg/kg/day: dose 10 mg/kg/day oral gavage; for inhibition in vivo at 100 mg/kg/day: dose 100 mg/kg/day oral gavage; for inhibition in vivo at 30 mg/kg/day: dose 30 mg/kg/day oral gavage
Text: Mutation in colonies of laboratory animals and different sensitivities to dietary regimens have made the development of animal models with non-insulin dependent diabetes associated with obesity and insulin resistance possible. Genetic models such as db/db and ob/ob (See Diabetes, (1982) 31(1): 1-6) in mice and fa/fa and zucker rats have been developed by the various laboratories for understanding the pathophysiology of disease and testing the efficacy of new antidiabetic compounds (Diabetes, (1983) 32: 830-838; Annu. Rep. Sankyo Res. Lab. (1994) 46: 1-57). The homozygous animals, C57 BL/KsJ-db/db mice developed by Jackson Laboratory, US, are obese, hyperglycemic, hyperinsulinemic and insulin resistant (J. Clin. Invest., (1990) 85: 962-967), whereas heterozygous are lean and normoglycemic. In db/db model, mouse progressively develops insulinopenia with age, a feature commonly observed in late stages of human type II diabetes when blood sugar levels are insufficiently controlled. The state of pancreas and its course vary according to the models. Since this model resembles that of type II diabetes mellitus, the compounds of the present invention were tested for blood sugar and triglycerides lowering activities.
Male C57BL/KsJ-db/db mice of 8 to 14 weeks age, having body weight range of 35 to 60 grams, procured from the Jackson Laboraotory, USA, were used in the experiment. The mice were provided with standard feed (National Institute of Nutrition, Hyderabad, India) and acidified water, ad libitum. The animals having more than 300 mg/dl blood sugar were used for testing. The number of animals in each group was 4.
The random blood sugar and triglyceride levels were measured by collecting blood (100 μl) through orbital sinus, using heparinised capillary in tubes containing EDTA which was centrifuged to obtain plasma. The plasma glucose and triglycerides levels were measured spectrometrically, by glucose oxidase and glycerol-3-PO4 oxidase/peroxidase enzyme (Dr. Reddy's Lab. Diagnostic Division Kits, Hyderabad, India) methods respectively. On 6th day the blood samples were collected one hour after administration of test compounds/vehicle for assessing the biological activity.
Test compounds were suspended on 0.25% carboxymethyl cellulose and administered to test group at a dose of 10 mg to 100 mg/kg through oral gavage daily for 6 days. The control group received vehicle (dose 10 ml/kg).
The blood sugar and triglycerides lowering activities of the test compound was calculated according to the formula: [formula]

[1] = read-out: Maximum reduction in blood glucose level (%)
[2] = read-out: Triglyceride lowering (%)

Compound | inhibition in vivo at 100 mg/kg/day [1] [%] | inhibition in vivo at 100 mg/kg/day [2] [%] | inhibition in vivo at 30 mg/kg/day [1] [%] | inhibition in vivo at 30 mg/kg/day [2] [%] | other results
CCc1nc2ccccc2c(=O)n1CCOc1ccc(CC2SC(=O)NC2=O)cc1 (stereo not drawn) [Example 24, 5-[4-[2-[2-Ethyl-4-oxo-3,4-dihydro-3-quinazolinyl]ethoxy]phenylmethyl]thiazolidine-2,4-dione] |  |  |  |  | inhibition in vivo at 10 mg/kg/day [1]: 63%; inhibition in vivo at 10 mg/kg/day [2]: 17%
Cn1c(COc2ccc(CC3SC(=O)NC3=O)cc2)nc2ccccc2c1=O (stereo not drawn) [Example 28, 5-[4-[[3-Methyl-4oxo-3,4-dihydro-2-quinazolinyl]methoxy]phenylmethyl]thiazolidine-2,4-dione sodium salt] |  |  |  |  | inhibition in vivo at 10 mg/kg/day [1]: 63%; inhibition in vivo at 10 mg/kg/day [2]: 57%
CCn1c(COc2ccc(/C=C3\SC(=O)NC3=O)cc2)nc2ccccc2c1=O [Example 13, 5-[4-[[3-Ethyl-4-oxo-3,4-dihydro-2-quinazolinyl]methoxy]phenylmethylene]thiazolidine-2,4-dione] | 52 | 57 |  |  | 
CCc1nc(-c2ccccc2)cc(=O)n1CCOc1ccc(CC2SC(=O)NC2=O)cc1 (stereo not drawn) [Example 21, 5-[4-[2-[2-Ethyl-4phenyl-6-oxo-1,6-dihydro-1-pyrimidinyl]ethoxy]phenylmethyl]thiazolidine-2,4-dione] |  |  | 64 | 76 | 
CCc1c(C)nc(CC)n(CCOc2ccc(/C=C3\SC(=O)NC3=O)cc2)c1=O [Example 6, 5-[4-[2-[2,Diethyl-4-methyl-6-oxo-1,6-dihydro-1-pyrimidinyl]ethoxy]phenylmethylene]thiazolidine-2,4-dione] | 41 | 31 |  |  | 
Cc1nc2ccccc2c(=O)n1CCOc1ccc(/C=C2\SC(=O)NC2=O)cc1 [Example 9, 5-[4-[2-[2-Methyl-4-oxo-3,4-dihydro-3-quinazolinyl]ethoxy]phenylmethylene]thiazolidine-2,4-dione] |  |  | 46 | 35 | 
Cc1nc2ncccc2c(=O)n1CCOc1ccc(/C=C2\SC(=O)NC2=O)cc1 [Example 11, 5-[4-[2-[8-Aza-2-methyl-4-oxo-3,4-dihydro-3-quinazolinyl]ethoxy]phenylmethylene]thiazolidine-2,4-dione] |  |  | 32 | 42 | 
Cn1c(COc2ccc(CC3SC(=O)NC3=O)cc2)nc2ccccc2c1=O (stereo not drawn) [Example 22, 5-[4-[[3-Methyl-4-oxo-3,4-dihydro-2-quinazolinyl]methoxy]phenylmethyl]thiazolidine-2,4-dione] |  |  | 55 | 41 | 
Cc1c(C)c2c(c(C)c1O)CCC(C)(COc1ccc(CC3SC(=O)NC3=O)cc1)O2 (stereo not drawn) [Troglitazone, reference compound] |  |  |  |  | reduction in random blood sugar level (100 mg/kg daily dose, on 6th day): 28%
Cn1c(COc2ccc(/C=C3\SC(=O)NC3=O)cc2)nc2ccccc2c1=O [Example 12, 5-[4-[[3-Methyl-4-oxo-3,4-dihydro-2-quinazolinyl]methoxy]phenylmethylene]thiazolidine-2,4-dione] | 71 | 57 |  |  | 
CCc1nc(-c2ccccc2)cc(=O)n1CCOc1ccc(/C=C2\SC(=O)NC2=O)cc1 [Example 7, 5-[4-[2-[2-Ethyl-4phenyl-6-oxo-1,6-dihydro-1-pyrimidinyl]ethoxy]phenylmethylene]thiazolidine-2,4-dione] | 66 | 35 |  |  | 
CCCc1nc(C)cc(=O)n1CCOc1ccc(CC2SC(=O)NC2=O)cc1 (stereo not drawn) [Example 17, 5-[4-[2-[4-methyl-2-Propyl-6-oxo-1,6-dihydro-1-pyrimidinyl]ethoxy]phenylmethyl]thiazolidine-2,4-dione] |  |  | 65 | 45 | 
CCc1nc(C)cc(=O)n1CCOc1ccc(CC2SC(=O)NC2=O)cc1 (stereo not drawn) [Example 19, 5-[4-[2-[2-Ethyl-4-methyl-6-oxo-1,6-dihydro-1-pyrimidinyl]ethoxy]phenylmethyl]thiazolidine-2,4-dione] |  |  | 73 | 70 | 
CCc1nc(C)cc(=O)n1CCOc1ccc(/C=C2\SC(=O)NC2=O)cc1 [Example 3, 5-[4-[2-[2-Ethyl-4-methyl-6-oxo-1,6-dihydro-1-pyrimidinyl]ethoxy]phenylmethylene]thiazolidine-2,4-dione] | 67 | 12 |  |  | 
